# Tested on: COVID-19 infection
# Format: in vivo
# Details: one subject
# [1] = confirmed COVID-19, furosemide orally twice daily, 40 mg mornings and 20 mg at 6 hours interval, for 3 days
smiles,measurement,setting,value
NS(=O)(=O)c1cc(C(=O)O)c(NCc2ccco2)cc1Cl [furosemide],"Subsidence of symptoms (cough, headache, body ache, fever, breathing difficulties)",[1],subsided on the second day
same,Total recovery of the subject,[1],totally recovered by night on the third day
same,"Infection status per Government hospital certificate, a while after treatment",after furosemide orally for 3 days,negative status for the infection

# From US20230226084A1, “NON-INVASIVE METHOD OF TREATING COVID-19 INFECTION” (priority 2022, published 2023)
